Experimental data reported in publication PMC10523607 (Proceedings of the National Academy of Sciences of the …, 2023).

Biological target: GPR34 (Homo sapiens, UniProt Q9UPC5)
Test: Tango assay
Assay type: cell-based
Conditions: compared with Hit-1 or YL-365

Sequence of GPR34 (Q9UPC5 whole entry): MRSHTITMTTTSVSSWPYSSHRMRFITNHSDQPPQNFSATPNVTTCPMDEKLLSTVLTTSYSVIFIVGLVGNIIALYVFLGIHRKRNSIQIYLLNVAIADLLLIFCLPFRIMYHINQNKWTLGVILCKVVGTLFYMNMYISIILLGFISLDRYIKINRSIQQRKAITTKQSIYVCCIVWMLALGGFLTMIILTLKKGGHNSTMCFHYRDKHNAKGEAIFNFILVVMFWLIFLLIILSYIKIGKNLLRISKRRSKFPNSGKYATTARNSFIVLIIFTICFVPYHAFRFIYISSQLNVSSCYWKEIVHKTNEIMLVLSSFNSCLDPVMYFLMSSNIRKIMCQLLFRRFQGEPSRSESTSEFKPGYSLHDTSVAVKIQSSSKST

Potency against GPR34 in words (SAR): showed antagonistic effect
Compound: NC(=O)C1(NC(=O)Cc2ccc(OCc3ccccc3)cc2)CCN(C(=O)c2ccc(-c3cccc(Cl)c3)cc2)CC1 [C-27]
